Molecules are shown by their SMILES. Where only a bound is given, the exact number is not on record here.

The test deals with GST-Bc1-2 (Homo sapiens, UniProt P10415). Put plainly: Time Resolved-Fluorescence Resonance Energy Transfer (TR-FRET) Bcl-2 binding assay with F-Bak peptide probe. The conditions noted are these: GST-Bcl-2 1 nM, F-Bak probe 100 nM, Tb-anti-GST 1 nM; '<' = below limit of detection; read-out: TR-FRET Bcl-2 Binding Ki. For orientation: Time-resolved FRET reads energy transfer from a long-lived donor to a nearby acceptor.
Chain of GST-Bc1-2 (P10415 whole entry): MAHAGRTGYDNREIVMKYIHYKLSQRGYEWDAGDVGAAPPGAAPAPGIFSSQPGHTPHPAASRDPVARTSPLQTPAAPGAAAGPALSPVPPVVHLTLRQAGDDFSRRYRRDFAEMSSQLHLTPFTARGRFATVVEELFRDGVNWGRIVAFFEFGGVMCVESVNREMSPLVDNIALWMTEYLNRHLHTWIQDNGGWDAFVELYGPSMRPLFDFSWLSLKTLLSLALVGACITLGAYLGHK

Experimental: The samples are then mixed on a shaker for 1 minute and incubated for an additional 3 hours at room temperature. For each assay, the probe/antibody and protein/probe/antibody were included on each assay plate as negative and positive controls, respectively.
The samples were then mixed on a shaker for 1 minute and incubated for an additional 3 hours at room temperature. For each assay, the probe/antibody and protein/probe/antibody were included on each assay plate as negative and positive controls, respectively.

What is called Ki is the equilibrium dissociation constant of an inhibitor or competing ligand from its target. As for `CC1(C)CCC(CN2CCN(c3ccc(C(=O)NS(=O)(=O)c4ccc(NCC56CC7CC(C5)C(O)C(C7)C6)c([N+](=O)[O-])c4)c(Oc4cnc5[nH]ccc5c4)c3)CC2)=C(c2ccc(Cl)cc2)C1` (stereo not drawn) [Example 199, 4-(4-{[2-(4-chlorophenyl)-4,4-dimethylcyclohex-1-en-1-yl]methyl}piperazin-1-yl)-N-{[4-({[(E)-4-hydroxy-1-adamantyl]methyl}amino)-3-nitrophenyl]sulfonyl}-2-(1H-pyrrolo[2,3-b]pyridin-5-yloxy)benzamide], the Ki was below 0.01 nM.

Consider `CC1(C)CCC(CN2CCN(c3ccc(C(=O)NS(=O)(=O)c4ccc(NCC56CC7CC(C5)C(O)C(C7)C6)c([N+](=O)[O-])c4)c(Oc4cnc5[nH]ccc5c4)c3)CC2)=C(c2ccc(Cl)cc2)C1` (stereo not drawn) [Example 200, 4-(4-{[2-(4-chlorophenyl)-4,4-dimethylcyclohex-1-en-1-yl]methyl}piperazin-1-yl)-N-{[4-({[(Z)-4-hydroxy-1-adamantyl]methyl}amino)-3-nitrophenyl]sulfonyl}-2-(1H-pyrrolo[2,3-b]pyridin-5-yloxy)benzamide], for which the Ki was below 0.01 nM. With `CC1(C)CCC(CN2CCN(c3ccc(C(=O)NS(=O)(=O)c4ccc(OCC5C[C@H]6C=C[C@@H]5C6)c([N+](=O)[O-])c4)c(Oc4cnc5[nH]ccc5c4)c3)CC2)=C(c2ccc(Cl)cc2)C1` (stereo partly drawn) [Example 201, N-({4-[(1S,4S)-bicyclo[2.2.1]hept-5-en-2-ylmethoxy]-3-nitrophenyl}sulfonyl)-4-(4-{[2-(4-chlorophenyl)-4,4-dimethylcyclohex-1-en-1-yl]methyl}piperazin-1-yl)-2-(1H-pyrrolo[2,3-b]pyridin-5-yloxy)benzamide] the figure was 0.014 nM. Then `CN1CC(Nc2ccc(S(=O)(=O)NC(=O)c3ccc(N4CCN(CC5=C(c6ccc(Cl)cc6)CC(C)(C)CC5)CC4)cc3Oc3cnc4[nH]ccc4c3)cc2[N+](=O)[O-])CC1=O` (stereo not drawn) [Example 202, 4-(4-{[2-(4-chlorophenyl)-4,4-dimethylcyclohex-1-en-1-yl]methyl}piperazin-1-yl)-N-({4-[(1-methyl-5-oxopyrrolidin-3-yl)amino]-3-nitrophenyl}sulfonyl)-2-(1H-pyrrolo[2,3-b]pyridin-5-yloxy)benzamide], with below 0.01 nM.

In the case of `CC1(C)CCC(CN2CCN(c3ccc(C(=O)NS(=O)(=O)c4ccc(OCC5CCCC(=O)C5)c([N+](=O)[O-])c4)c(Oc4cnc5[nH]ccc5c4)c3)CC2)=C(c2ccc(Cl)cc2)C1` (stereo not drawn) [Example 205, 4-(4-{[2-(4-chlorophenyl)-4,4-dimethylcyclohex-1-en-1-yl]methyl}piperazin-1-yl)-N-({3-nitro-4-[(3-oxocyclohexyl)methoxy]phenyl}sulfonyl)-2-(1H-pyrrolo[2,3-b]pyridin-5-yloxy)benzamide], the inhibition constant Ki was below 0.01 nM. On to `CC1(C)C=CC(c2ccc(Cl)cc2)=C(CN2CCN(c3ccc(C(=O)NS(=O)(=O)c4ccc(NCC5CCOCC5)c([N+](=O)[O-])c4)c(Oc4cnc5[nH]ccc5c4)c3)CC2)C1` [Example 206, 4-(4-{[2-(4-chlorophenyl)-5,5-dimethylcyclohexa-1,3-dien-1-yl]methyl}piperazin-1-yl)-N-({3-nitro-4-[(tetrahydro-2H-pyran-4-ylmethyl)amino]phenyl}sulfonyl)-2-(1H-pyrrolo[2,3-b]pyridin-5-yloxy)benzamide], for which the Ki worked out at 0.036 nM.

For the compound `CC1(C)CCC(CN2CCN(c3ccc(C(=O)NS(=O)(=O)c4ccc(N[C@@H]5CCN(C(CF)CF)C5)c([N+](=O)[O-])c4)c(Oc4cnc5[nH]ccc5c4)c3)CC2)=C(c2ccc(Cl)cc2)C1` [Example 207, 4-(4-{[2-(4-chlorophenyl)-4,4-dimethylcyclohex-1-en-1-yl]methyl}piperazin-1-yl)-N-{[4-({(3R)-1-[2-fluoro-1-(fluoromethyl)ethyl]pyrrolidin-3-yl}amino)-3-nitrophenyl]sulfonyl}-2-(1H-pyrrolo[2,3-b]pyridin-5-yloxy)benzamide], the Ki amounted to 0.03 nM. `CC1(C)CCC(CN2CCN(c3ccc(C(=O)NS(=O)(=O)c4cnc(OCC5(F)CCOCC5)c(C(F)(F)F)c4)c(Oc4cnc5[nH]ccc5c4)c3)CC2)=C(c2ccc(Cl)cc2)C1` [Example 208, 4-(4-{[2-(4-chlorophenyl)-4,4-dimethylcyclohex-1-en-1-yl]methyl}piperazin-1-yl)-N-{[6-[(4-fluorotetrahydro-2H-pyran-4-yl)methoxy]-5-(trifluoromethyl)pyridin-3-yl]sulfonyl}-2-(1H-pyrrolo[2,3-b]pyridin-5-yloxy)benzamide]: the Ki was determined as 0.104 nM. With `CC1(C)CCC(CN2CCN(c3ccc(C(=O)NS(=O)(=O)c4ccc(NC[C@@H]5CCN(C6COC6)C5)c([N+](=O)[O-])c4)c(Oc4cnc5[nH]ccc5c4)c3)CC2)=C(c2ccc(Cl)cc2)C1` [Example 209, 4-(4-{[2-(4-chlorophenyl)-4,4-dimethylcyclohex-1-en-1-yl]methyl}piperazin-1-yl)-N-{[3-nitro-4-({[(3S)-1-oxetan-3-ylpyrrolidin-3-yl]methyl}amino)phenyl]sulfonyl}-2-(1H-pyrrolo[2,3-b]pyridin-5-yloxy)benzamide] the figure was below 0.01 nM; with `CO[C@H]1CC[C@H](COc2ncc(S(=O)(=O)NC(=O)c3ccc(N4CCN(CC5=C(c6ccc(Cl)cc6)CC(C)(C)CC5)CC4)cc3Oc3cnc4[nH]ccc4c3)cc2Cl)CC1` [Example 210, Trans-N-({5-chloro-6-[(4-methoxycyclohexyl)methoxy]pyridin-3-yl}sulfonyl)-4-(4-{[2-(4-chlorophenyl)-4,4-dimethylcyclohex-1-en-1-yl]methyl}piperazin-1-yl)-2-(1H-pyrrolo[2,3-b]pyridin-5-yloxy)benzamide], 0.011 nM; with `CO[C@H]1CC[C@@H](COc2ncc(S(=O)(=O)NC(=O)c3ccc(N4CCN(CC5=C(c6ccc(Cl)cc6)CC(C)(C)CC5)CC4)cc3Oc3cnc4[nH]ccc4c3)cc2Cl)CC1` [Example 211, Cis-N-({5-chloro-6-[(4-methoxycyclohexyl)methoxy]pyridin-3-yl}sulfonyl)-4-(4-{[2-(4-chlorophenyl)-4,4-dimethylcyclohex-1-en-1-yl]methyl}piperazin-1-yl)-2-(1H-pyrrolo[2,3-b]pyridin-5-yloxy)benzamide], 0.058 nM.

On to `COCCOCCN1CCOC(CNc2ccc(S(=O)(=O)NC(=O)c3ccc(N4CCN(CC5=C(c6ccc(Cl)cc6)CC(C)(C)CC5)CC4)cc3Oc3cnc4[nH]ccc4c3)cc2[N+](=O)[O-])C1` (stereo not drawn) [Example 213, 4-(4-{[2-(4-chlorophenyl)-4,4-dimethylcyclohex-1-en-1-yl]methyl}piperazin-1-yl)-N-({4-[({4-[2-(2-methoxyethoxy)ethyl]morpholin-2-yl}methyl)amino]-3-nitrophenyl}sulfonyl)-2-(1H-pyrrolo[2,3-b]pyridin-5-yloxy)benzamide], for which the Ki was below 0.01 nM. With `CC1(C)CCC(CN2CCN(c3ccc(C(=O)NS(=O)(=O)c4ccc(NCC5CN(CC#N)CCO5)c([N+](=O)[O-])c4)c(Oc4cnc5[nH]ccc5c4)c3)CC2)=C(c2ccc(Cl)cc2)C1` (stereo not drawn) [Example 214, 4-(4-{[2-(4-chlorophenyl)-4,4-dimethylcyclohex-1-en-1-yl]methyl}piperazin-1-yl)-N-{[4-({[4-(cyanomethyl)morpholin-2-yl]methyl}amino)-3-nitrophenyl]sulfonyl}-2-(1H-pyrrolo[2,3-b]pyridin-5-yloxy)benzamide] the figure was below 0.01 nM. With `CN(C)CC(=O)N1CCOC(CNc2ccc(S(=O)(=O)NC(=O)c3ccc(N4CCN(CC5=C(c6ccc(Cl)cc6)CC(C)(C)CC5)CC4)cc3Oc3cnc4[nH]ccc4c3)cc2[N+](=O)[O-])C1` (stereo not drawn) [Example 215, 4-(4-{[2-(4-chlorophenyl)-4,4-dimethylcyclohex-1-en-1-yl]methyl}piperazin-1-yl)-N-{[4-({[4-(N,N-dimethylglycyl)morpholin-2-yl]methyl}amino)-3-nitrophenyl]sulfonyl}-2-(1H-pyrrolo[2,3-b]pyridin-5-yloxy)benzamide] the figure was below 0.01 nM.

In the case of `CC1(C)CCC(CN2CCN(c3ccc(C(=O)NS(=O)(=O)c4ccc(NCC5CN(CC(=O)O)CCO5)c([N+](=O)[O-])c4)c(Oc4cnc5[nH]ccc5c4)c3)CC2)=C(c2ccc(Cl)cc2)C1` (stereo not drawn) [Example 216, (2-{[(4-{[4-(4-{[2-(4-chlorophenyl)-4,4-dimethylcyclohex-1-en-1-yl]methyl}piperazin-1-yl)-2-(1H-pyrrolo[2,3-b]pyridin-5-yloxy)benzoyl]sulfamoyl}-2-nitrophenyl)amino]methyl}morpholin-4-yl)acetic acid], the Ki was below 0.01 nM.

Take `CC1(C)CCC(CN2CCN(c3ccc(C(=O)NS(=O)(=O)c4ccc(NCC5CN(C6COC6)CCO5)c([N+](=O)[O-])c4)c(Oc4cnc5[nH]ccc5c4)c3)CC2)=C(c2ccc(Cl)cc2)C1` (stereo not drawn) [Example 217, 4-(4-{[2-(4-chlorophenyl)-4,4-dimethylcyclohex-1-en-1-yl]methyl}piperazin-1-yl)-N-{[3-nitro-4-({[4-(oxetan-3-yl)morpholin-2-yl]methyl}amino)phenyl]sulfonyl}-2-(1H-pyrrolo[2,3-b]pyridin-5-yloxy)benzamide]: the inhibition constant Ki is below 0.01 nM. Take `CC1(C)CCC(CN2CCN(c3ccc(C(=O)NS(=O)(=O)c4ccc(NCC5CN(C6CC6)CCO5)c([N+](=O)[O-])c4)c(Oc4cnc5[nH]ccc5c4)c3)CC2)=C(c2ccc(Cl)cc2)C1` (stereo not drawn) [Example 218, 4-(4-{[2-(4-chlorophenyl)-4,4-dimethylcyclohex-1-en-1-yl]methyl}piperazin-1-yl)-N-[(4-{[(4-cyclopropylmorpholin-2-yl)methyl]amino}-3-nitrophenyl)sulfonyl]-2-(1H-pyrrolo[2,3-b]pyridin-5-yloxy)benzamide]: the Ki is 0.013 nM. With `CC1(C)CCC(CN2CCN(c3ccc(C(=O)NS(=O)(=O)c4cnc(OCC5CCOCC5)c(S(C)(=O)=O)c4)c(Oc4cnc5[nH]ccc5c4)c3)CC2)=C(c2ccc(Cl)cc2)C1` [Example 219, 4-(4-{[2-(4-chlorophenyl)-4,4-dimethylcyclohex-1-en-1-yl]methyl}piperazin-1-yl)-N-{[5-(methylsulfonyl)-6-(tetrahydro-2H-pyran-4-ylmethoxy)pyridin-3-yl]sulfonyl}-2-(1H-pyrrolo[2,3-b]pyridin-5-yloxy)benzamide], the Ki worked out at 1.19 nM.

The values above are taken from patent US8580794B2 (AbbVie Inc., priority 2009, dated 2013).
